Laboratory results published in patent publication US12459957B2, “Therapeutic compounds and methods” (GENENTECH, INC., priority 2021, dated 2025).
Entries after “also recorded” stand apart in the source; their conditions may differ.

Key:
[1] = system: neutrophils (PMA-stimulated NETosis); assay: Quantification of NETosis using SYTOX Green; assay type: cell-based, human; details: polymorphonuclear leukocytes, FIG. 1
Procedure, shortened: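 SYTOX Green-stained neutrophils imaged in phase and fluorescence; total cells counted from phase images, NETosis assigned by DNA area against a per-experiment training set. Controls: unstimulated and PMA-stimulated pyocyanin-inhibited (negative), PMA-stimulated (positive); value is NET-forming cells as % of total.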

[2] = target: T1, recombinant GSDMD / caspase-4 (Homo sapiens, UniProt P57764); assay: Cleavage of recombinant GSDMD by caspase-4; assay type: biochemical
T1 sequence (P57764 1-484): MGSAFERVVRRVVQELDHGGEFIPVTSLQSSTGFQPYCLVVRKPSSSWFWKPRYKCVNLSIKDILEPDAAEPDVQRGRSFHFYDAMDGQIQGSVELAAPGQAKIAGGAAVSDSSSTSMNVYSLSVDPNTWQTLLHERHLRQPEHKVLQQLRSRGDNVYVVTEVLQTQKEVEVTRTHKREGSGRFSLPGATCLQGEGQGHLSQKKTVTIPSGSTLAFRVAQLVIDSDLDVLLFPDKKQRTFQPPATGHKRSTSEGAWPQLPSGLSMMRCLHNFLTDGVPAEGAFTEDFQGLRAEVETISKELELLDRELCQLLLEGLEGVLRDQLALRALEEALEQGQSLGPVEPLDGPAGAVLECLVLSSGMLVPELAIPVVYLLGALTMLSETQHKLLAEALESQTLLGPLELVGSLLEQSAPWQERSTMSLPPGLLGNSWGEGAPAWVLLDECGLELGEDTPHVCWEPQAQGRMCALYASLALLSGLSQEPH
Method: (§1) FIG. 1. […] LDH (A) or IL-1β (B) released from primary human monocytes. Bars show the mean±s.e.m. of monocytes from 3 donors. (C) Western blots of monocytes at 1 h after electroporation with LPS. FL, full length GSDMD. NT, N-terminal fragment of GSDMD. Results representative of 3 independent experiments. (D) Coomassie blue staining of recombinant GSDMD. Results representative of 3 independent experiments. (E) TR-FRET assay measuring Europium-labeled biotin released from liposomes exposed to caspase-4 and GSDMD. Symbols indicate the mean±s.d. of 3 independent experiments. (F-G) Percentage of polymorphonuclear leukocytes (PMNs) undergoing NETosis induced by PMA (F) or the stimuli indicated (G). Data are the mean±s.d. of cells from 3 donors. (H) ROS production by PMNs. Bars show the mean±s.e.m. of PMNs from 3 donors. P-values (Two-way ANOVA, means compared to medium alone) are shown if P<0.05. (I) Percentage of PMNs undergoing PMA-induced NETosis. The x-axis indicates when NA-11 was added relative to the addition of PMA (t=0). Bars show the mean±s.e.m. of PMNs from 3 donors. P-values (one-way ANOVA, means compared to medium alone) are shown if P<0.05.
(§2) LDC7559 was reported to block the pore-forming activity of GSDMD (Sollberger et al., 2018). The ability to inhibit GSDMD-dependent pyroptosis in primary human monocytes and human monocytic THP-1 cells was tested (FIG. 1A-C).

[3] = system: GSDMD-dependent pyroptosis in primary human monocytes and human monocytic THP-1 cells; assay: GSDMD-dependent pyroptosis, LDH release; assay type: cell-based; details: induced by nigericin, cytoplasmic LPS or cytoplasmic poly(dA-dT)
Method: as §1, §2

GSDMD = target: T2, GSDMD (Homo sapiens, UniProt P57764); assay: Western blot of LPS-induced cleavage of GSDMD in monocytes; assay type: cell-based; details: monocytes after electroporation with LPS
T2 construct: Western blots of monocytes at 1 h after electroporation with LPS; endogenous in cells; host or cells: primary human monocytes
T2 sequence (P57764 1-484): T1 sequence (P57764 1-484)
Method: as §1, §2

[4] = target: T3, phosphofructokinase-1 liver type (PFKL) (Homo sapiens, UniProt P17858); assay: PFKL activation; assay type: biochemical
T3 sequence (P17858 1-780): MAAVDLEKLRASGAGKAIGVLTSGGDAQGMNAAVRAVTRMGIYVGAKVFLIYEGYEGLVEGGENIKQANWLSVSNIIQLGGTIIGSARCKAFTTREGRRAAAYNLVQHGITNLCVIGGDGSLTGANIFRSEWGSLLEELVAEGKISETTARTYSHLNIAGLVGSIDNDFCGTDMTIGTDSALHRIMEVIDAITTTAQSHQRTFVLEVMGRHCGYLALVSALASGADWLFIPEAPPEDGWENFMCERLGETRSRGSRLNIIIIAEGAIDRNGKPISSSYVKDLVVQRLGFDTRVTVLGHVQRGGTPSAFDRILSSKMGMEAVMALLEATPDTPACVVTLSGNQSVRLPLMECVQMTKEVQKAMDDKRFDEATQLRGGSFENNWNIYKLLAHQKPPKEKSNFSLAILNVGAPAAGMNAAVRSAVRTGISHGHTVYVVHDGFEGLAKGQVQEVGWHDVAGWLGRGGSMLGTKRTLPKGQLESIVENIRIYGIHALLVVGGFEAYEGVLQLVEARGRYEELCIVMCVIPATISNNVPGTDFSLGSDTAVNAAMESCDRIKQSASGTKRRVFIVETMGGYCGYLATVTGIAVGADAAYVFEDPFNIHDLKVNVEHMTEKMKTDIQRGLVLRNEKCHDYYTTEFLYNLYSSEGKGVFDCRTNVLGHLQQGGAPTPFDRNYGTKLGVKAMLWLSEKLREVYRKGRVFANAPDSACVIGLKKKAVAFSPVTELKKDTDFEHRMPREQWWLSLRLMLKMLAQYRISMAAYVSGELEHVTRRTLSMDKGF

[5] = system: NOX2-dependent oxidative burst in neutrophils; assay: NOX2-dependent oxidative burst in neutrophils; assay type: cell-based
[6] = system: GSDMD-dependent release of interleukin-1β (IL-1β) from monocytes; assay: GSDMD-dependent release of IL-1β from monocytes; assay type: cell-based, human; details: in response to nigericin or poly(dA-dT)
Method: as §1, §2

[7] = target: T4, GSDMD pore-forming fragment (Homo sapiens, UniProt P57764); assay: TR-FRET liposome permeabilization by GSDMD pore-forming fragment; assay type: biochemical; details: liposomes exposed to caspase-4 and GSDMD
T4 sequence (P57764 1-275 limits assumed): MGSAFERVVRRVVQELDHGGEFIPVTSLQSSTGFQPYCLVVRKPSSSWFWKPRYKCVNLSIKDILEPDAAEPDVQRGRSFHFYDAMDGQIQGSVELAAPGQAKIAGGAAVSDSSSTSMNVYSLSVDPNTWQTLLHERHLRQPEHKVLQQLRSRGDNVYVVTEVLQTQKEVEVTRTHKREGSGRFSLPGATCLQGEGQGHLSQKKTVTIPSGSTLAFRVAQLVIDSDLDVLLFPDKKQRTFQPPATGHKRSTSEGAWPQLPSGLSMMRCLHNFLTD
Method: as §1, §2

`COc1ccccc1-c1cc2n(n1)Cc1ccc(NC(C)=O)cc1OC2` [LDC7559, N-(2-(2-methoxyphenyl)-4H,10H-benzo[f]pyrazolo[5,1-c][1,4]oxazepin-7-yl)acetamide] was tested, and the “NETosis (qualitative)” value [1] was “inhibit NETosis”, the “cleavage of recombinant GSDMD by caspase-4” value [2] was “did not inhibit” and the “GSDMD-dependent pyroptosis (LDH release)” value [3] was “did not alter”. For the same compound, the “LPS-induced cleavage of GSDMD (Western blotting)” value (GSDMD) was “did not prevent”, the “agonism/activation of PFKL” value [4] was “activating; also recorded: agonize” and the NOX2-dependent oxidative burst [5] was “inhibit; also recorded: suppress”. The “GSDMD-dependent release of IL-1β” value [6] was “occurred normally” and the “liposome permeabilization by GSDMD pore-forming fragment” value [7] was “Nor did it prevent”.
